Literature values as cited in patent US10799486B2 (NORTIC HOLDINGS INC., priority 2016, dated 2020).

Legend:
[1] = nimodipine-treated subarachnoid hemorrhage (SAH) patients
[2] = oral administration

COCCOC(=O)C1=C(C)NC(C)=C(C(=O)OC(C)C)C1c1cccc([N+](=O)[O-])c1 (stereo not drawn) [nimodipine, isopropyl 2-methoxyethyl 1,4-dihydro-2,6-dimethyl-4-(m-nitrophenyl)-3,5-pyridinedicarboxylate]
concentration detected in the cerebrospinal fluid [1]: ≤ 12.5 ng/mL
half-life equivalent to earlier elimination rates ([2]; man): 1 to 2 h
Cmax in patients with hepatic cirrhosis versus normal ([2]; hepatic cirrhosis): approximately double that in normal
